The experiment has as its system CAL51 cell proliferation. As to the kind of experiment: Cell Titer Glo Proliferation Assay (CAL51). The format is cell-based, human. As to conditions: CAL51 cell proliferation, 72 h, Cell Titer Glo luminescence, read-out: Act. Level. The gist of the method:
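Viability is measured by CellTiter-Glo luminescence after 72 h of compound exposure. CAL51 cells were seeded in growth medium with 10% FBS and 2 mM glutamine, cultured overnight, then dosed with compound dilutions, vehicle held at 0.2% DMSO.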

Where two headings read alike, the source gives them in different places. Some results are limits rather than exact numbers.

For `CNC(=O)c1ccc(Nc2nc(OC(C)(C)C)c3c(-c4ccc5nc(C)oc5c4)c[nH]c3n2)c(OC)c1` [Example 246, 4-(4-tert-butoxy-5-(2-methylbenzo[d]oxazol-6-yl)-7H-pyrrolo[2,3-d]pyrimidin-2-ylamino)-3-methoxy-N-methylbenzamide], for the setting “Homo sapiens, CAL-51”, the IC50 was less than 100 nM.

Turning to `CNC(=O)c1ccc(Nc2nc(OC3CCCC3)c3c(-c4ccc(C#N)cc4)c[nH]c3n2)c(OC)c1` [Example 77, 4-(5-(4-cyanophenyl)-4-(cyclopentyloxy)-7H-pyrrolo[2,3-d]pyrimidin-2-ylamino)-3-methoxy-N-methylbenzamide], the IC50 (Homo sapiens, CAL-51) is 1000 to 10000 nM.

Take `CNC(=O)c1ccc(Nc2nc(OC3CCCC3)c3c(-c4ccc(N)c(O)c4)c[nH]c3n2)c(OC)c1` [Example 294, 4-(5-(4-amino-3-hydroxyphenyl)-4-(cyclopentyloxy)-7H-pyrrolo [2,3-d]pyrimidin-2-ylamino)-3-methoxy-N-methylbenzamide]: the IC50 (Homo sapiens, CAL-51) is 100 to 400 nM.

Regarding `CC[C@H](C)Oc1nc(Nc2ccc(C(=O)NC)cc2OC)nc2[nH]cc(-c3cnn(C)c3)c12` [Example 276, (S)-4-(4-sec-butoxy-5-(1-methyl-1H-pyrazol-4-yl)-7H-pyrrolo[2,3-d]pyrimidin-2-ylamino)-3-methoxy-N-methylbenzamide], under “Homo sapiens, CAL-51”, the IC50 is less than 100 nM.

With `CNC(=O)c1ccc(Nc2nc(OC3CCCC3)c3c(-c4ccc(C(=N)N)cc4)c[nH]c3n2)c(OC)c1` [Example 245, 4-(5-(4-carbamimidoylphenyl)-4-(cyclopentyloxy)-7H-pyrrolo[2,3-d]pyrimidin-2-ylamino)-3-methoxy-N-methylbenzamide], for the setting “Homo sapiens, CAL-51”, the IC50 fell in the range of 1000 to 10000 nM.

As for `CNC(=O)c1ccc(Nc2nc(OC3CCCC3)c3c(-c4cccnc4)c[nH]c3n2)c(OC)c1` [Example 58, 4-(4-(cyclopentyloxy)-5-(pyridin-3-yl)-7H-pyrrolo[2,3-d]pyrimidin-2-ylamino)-3-methoxy-N-methylbenzamide], the IC50 (Homo sapiens, CAL-51) is less than 100 nM.

As to `COc1cc(C(=O)NCC2CCOCC2)ccc1Nc1nc(OC2CCCC2)c2c(-c3ccc4nc(C)oc4c3)c[nH]c2n1` [Example 243, 4-(4-(cyclopentyloxy)-5-(2-methylbenzo[d]oxazol-6-yl)-7H-pyrrolo[2,3-d]pyrimidin-2-ylamino)-3-methoxy-N-((tetrahydro-2H-pyran-4-yl)methyl)benzamide], the IC50 (Homo sapiens, CAL-51) was 100 to 400 nM.

As to `Cc1nc2ccc(-c3c[nH]c4nc(Nc5ccc(C(=O)N(C)C)cc5C)nc(OC5CCOCC5)c34)cc2o1` [Example 70, N,N,3-trimethyl-4-(5-(2-methylbenzo[d]oxazol-6-yl)-4-(tetrahydro-2H-pyran-4-yloxy)-7H-pyrrolo[2,3-d]pyrimidin-2-ylamino)benzamide], the IC50 (Homo sapiens, CAL-51) lay in the range of 100 to 400 nM.

On to `COc1cc(C(=O)N(C)C)ccc1Nc1nc(O[C@@H]2CCOC2)c2c(-c3ccc4nc(C)oc4c3)c[nH]c2n1` [Example 222, (R)-3-methoxy-N,N-dimethyl-4-(5-(2-methylbenzo[d]oxazol-6-yl)-4-(tetrahydrofuran-3-yloxy)-7H-pyrrolo[2,3-d]pyrimidin-2-ylamino)benzamide], for which the IC50 (Homo sapiens, CAL-51) was less than 100 nM.

For `CNC(=O)c1ccc(-c2c[nH]c3nc(Nc4ccc(C(=O)NCCO)cc4OC)nc(OC4CCCC4)c23)cc1` [Example 258, 4-(4-(cyclopentyloxy)-5-(4-(methylcarbamoyl)phenyl)-7H-pyrrolo[2,3-d]pyrimidin-2-ylamino)-N-(2-hydroxyethyl)-3-methoxybenzamide], the IC50 (Homo sapiens, CAL-51) was less than 100 nM.

Regarding `CNC(=O)c1ccc(Nc2nc(OC3CCOCC3)c3c(-c4cnccn4)c[nH]c3n2)c(OC)c1` [Example 186, 3-methoxy-N-methyl-4-(5-(pyrazin-2-yl)-4-(tetrahydro-2H-pyran-4-yloxy)-7H-pyrrolo[2,3-d]pyrimidin-2-ylamino) benzamide], the IC50 (Homo sapiens, CAL-51) was 100 to 400 nM.

`COc1cc(C(=O)NC2CCCOC2)ccc1Nc1nc(OC2CCCC2)c2c(-c3ccc4nc(C)oc4c3)c[nH]c2n1` (stereo not shown) [Example 274, 4-(4-(cyclopentyloxy)-5-(2-methylbenzo[d]oxazol-6-yl)-7H-pyrrolo[2,3-d]pyrimidin-2-ylamino)-3-methoxy-N-(tetrahydro-2H-pyran-3-yl) benzamide]: the IC50 is less than 100 nM.

For the molecule `CNC(=O)c1ccc(Nc2nc(OC3CCOCC3)c3c(-c4ccncc4)c[nH]c3n2)c(C(C)C)c1` [Example 200, 3-isopropyl-N-methyl-4-(5-(pyridin-4-yl)-4-(tetrahydro-2H-pyran-4-yloxy)-7H-pyrrolo[2,3-d]pyrimidin-2-ylamino) benzamide], the IC50 (Homo sapiens, CAL-51) lay in the range of 100 to 400 nM.

Take `CNCCNC(=O)c1ccc(Nc2nc(OC3CCOCC3)c3c(-c4ccc5nc(C)oc5c4)c[nH]c3n2)c(OC)c1` [Example 130, 3-methoxy-N-(2-(methylamino)ethyl)-4-(5-(2-methylbenzo[d]oxazol-6-yl)-4-(tetrahydro-2H-pyran-4-yloxy)-7H-pyrrolo [2,3-d]pyrimidin-2-ylamino)benzamide]: under “Homo sapiens, CAL-51”, the IC50 fell in the range of 100 to 400 nM.

On to `CNC(=O)c1ccc(Nc2nc(OC3CCCC3)c3c(-c4ccc(CO)cc4)c[nH]c3n2)c(OC)c1` [Example 23, 4-(4-(cyclopentyloxy)-5-(4-(hydroxymethyl)phenyl)-7H-pyrrolo[2,3-d]pyrimidin-2-ylamino)-3-methoxy-N-methylbenzamide], for which the IC50 (Homo sapiens, CAL-51) is 100 to 400 nM.

As for `CNC(=O)c1ccc(Nc2nc(O[C@H]3CCOC3)c3c(-c4ccc5nc(C)oc5c4)c[nH]c3n2)c(C)c1` [Example 133, (S)-N,3-dimethyl-4-(5-(2-methylbenzo[d]oxazol-6-yl)-4-(tetrahydrofuran-3-yloxy)-7H-pyrrolo[2,3-d]pyrimidin-2-ylamino)benzamide], the IC50 (Homo sapiens, CAL-51) is less than 100 nM.

With `COc1cc(C(=O)NC(C)(C)C)ccc1Nc1nc(OC2CCCC2)c2c(-c3ccc4nc(C)oc4c3)c[nH]c2n1` [Example 224, N-tert-butyl-4-(4-(cyclopentyloxy)-5-(2-methylbenzo[d]oxazol-6-yl)-7H-pyrrolo[2,3-d]pyrimidin-2-ylamino)-3-methoxybenzamide], for the setting “Homo sapiens, CAL-51”, the IC50 was in the range of 100 to 400 nM.

For `CNC(=O)c1ccc(Nc2nc(OC3CCCC3)c3c(-c4ccc(O)cc4)c[nH]c3n2)c(F)c1` [Example 15, 4-(4-(cyclopentyloxy)-5-(4-hydroxyphenyl)-7H-pyrrolo[2,3-d]pyrimidin-2-ylamino)-3-fluoro-N-methylbenzamide], the IC50 (Homo sapiens, CAL-51) is less than 100 nM.

`CNC(=O)c1ccc(Nc2nc(O[C@H]3CCOC3)c3c(-c4cnn(C)c4)c[nH]c3n2)c(C(C)C)c1` [Example 208, (S)-3-isopropyl-N-methyl-4-(5-(1-methyl-1H-pyrazol-4-yl)-4-(tetahydrofuran-3-yloxy)-7H-pyrrolo[2,3-d]pyrimidin-2-ylamino)benzamide]: under “Homo sapiens, CAL-51”, the IC50 was in the range of 100 to 400 nM.

`COc1cc(C(=O)NC2CCOCC2)ccc1Nc1nc(OC2CCCC2)c2c(-c3ccc4nc(C)oc4c3)c[nH]c2n1` [Example 252, 4-(4-(cyclopentyloxy)-5-(2-methylbenzo[d]oxazol-6-yl)-7H-pyrrolo[2,3-d]pyrimidin-2-ylamino)-3-methoxy-N-(tetrahydro-2H-pyran-4-yl)benzamide]: the IC50 (Homo sapiens, CAL-51) lay in the range of 100 to 400 nM.

For `CNC(=O)c1ccc(Nc2nc(OC3CCCC3)c3c(-c4ccc5[nH]c(=O)oc5c4)c[nH]c3n2)c(OC)c1` [Example 299, 4-(4-(cyclopentyloxy)-5-(2-oxo-2,3-dihydrobenzo[d]oxazol-6-yl)-7H-pyrrolo[2,3-d]pyrimidin-2-ylamino)-3-methoxy-N-methylbenzamide], the IC50 (Homo sapiens, CAL-51) was 100 to 400 nM.

For the molecule `CNC(=O)c1ccc(Nc2nc(OC3CCCC3)c3c(-c4ccc5c(C)noc5c4)c[nH]c3n2)c(OC)c1` [Example 279, 4-(4-(cyclopentyloxy)-5-(3-methylbenzo[d]isoxazol-6-yl)-7H-pyrrolo[2,3-d]pyrimidin-2-ylamino)-3-methoxy-N-methylbenzamide], the IC50 (Homo sapiens, CAL-51) is less than 100 nM.

Regarding `Cc1nc2ccc(-c3c[nH]c4nc(Nc5ccc(C(=O)N(C)C)cc5C)nc(O[C@H]5CCOC5)c34)cc2o1` [Example 98, (S)-N,N,3-trimethyl-4-(5-(2-methylbenzo[d]oxazol-6-yl)-4-(tetrahydrofuran-3-yloxy)-7H-pyrrolo[2,3-d]pyrimidin-2-ylamino)benzamide], under “Homo sapiens, CAL-51”, the IC50 was less than 100 nM.

With `CNC(=O)c1ccc(Nc2nc(OC3CC3)c3c(-c4ccn(C)n4)c[nH]c3n2)c(OC)c1` [Example 218, 4-(4-cyclopropoxy-5-(1-methyl-1H-pyrazol-3-yl)-7H-pyrrolo[2,3-d]pyrimidin-2-ylamino)-3-methoxy-N-methylbenzamide], the IC50 was 1000 to 10000 nM.

As to `COc1cc(C(=O)N2CCOCC2)ccc1Nc1nc(OC2CCCC2)c2c(-c3ccc4nc(C)oc4c3)c[nH]c2n1` [Example 96, (4-(4-(cyclopentyloxy)-5-(2-methylbenzo[d]oxazol-6-yl)-7H-pyrrolo[2,3-d]pyrimidin-2-ylamino)-3-methoxyphenyl)(morpholino) methanone], the IC50 (Homo sapiens, CAL-51) lay within 400 to 1000 nM.

For the molecule `CNC(=O)c1ccc(Nc2nc(OC3CCC3)c3c(-c4ccc5nc(C)oc5c4)c[nH]c3n2)c(OC)c1` [Example 198, 4-(4-cyclobutoxy-5-(2-methylbenzo[d]oxazol-6-yl)-7H-pyrrolo[2,3-d]pyrimidin-2-ylamino)-3-methoxy-N-methylbenzamide], for the setting “Homo sapiens, CAL-51”, the IC50 is less than 100 nM.

As to `CNC(=O)c1ccc(Nc2nc(OC3COC3)c3c(-c4ccc5nc(C)oc5c4)c[nH]c3n2)c(OC)c1` [Example 179, 3-methoxy-N-methyl-4-(5-(2-methylbenzo[d]oxazol-6-yl)-4-(oxetan-3-yloxy)-7H-pyrrolo[2,3-d]pyrimidin-2-ylamino)benzamide], the IC50 (Homo sapiens, CAL-51) was less than 100 nM.

In the case of `CNC(=O)c1ccc(Nc2nc(OC3CCOCC3)c3c(-c4ccnnc4)c[nH]c3n2)c(OC)c1` [Example 269, 3-methoxy-N-methyl-4-(5-(pyridazin-4-yl)-4-(tetrahydro-2H-pyran-4-yloxy)-7H-pyrrolo[2,3-d]pyrimidin-2-ylamino)benzamide], the IC50 (Homo sapiens, CAL-51) was 400 to 1000 nM.

(Values after patent US9346812B2, “Substituted pyrrolopyrimidine compounds, compositions thereof, and methods of treatment therewith” (Signal Pharmaceutical LLC, priority 2013, dated 2016).)
